Among the data in patent US6310213A, “Ethanesulfonyl-piperidine derivatives” (Hoffmann-La Roche Inc., priority 1999, dated 2001) are IC50 and ED50 values, retold here.

Test [1] addresses T1, recombinant human ERG potassium channels (Homo sapiens, UniProt Q12809).
T1 construct: expressed in transfected cells; host or cells: CHO cells, stably transfected with pcDNA3-HERG
The experiment in a line: Inhibition of the HERG K+ channel, whole-cell patch-clamp, transfected CHO cells. It is filed as cell-based. The note with it: concentrations above 10 μM not tested. The source says:
Method 3 Methods for Studying the Inhibition of the HERG K^+ Channel CHO cells were stably transfected by a pcDNA3-HERG expression vector containing a SV40-neo cassette for selection. Cells were thinly plated into 35 mm dishes and used for the electrophysiological experiment 1/2-3 d later. […] A 10-mM stock solution of the test compound was made from pure DMSO. Test solution were made by at least 1000-fold dilution of the stock solution into the extracellular saline. […] The whole-cell configuration of the patch-clamp technique was used for the experiments. […] The membrane current was recorded for at least 3 min (18 stimuli) before compound application (control), and then for another two 3-min intervals in presence of two different concentrations of the compound. The current amplitudes (Itest) at the end of each compound application interval were divided by the mean current amplitude (Icontrol) during the initial control period to calculate the percentage effect of the compound: effect (%)=(1-Itest /Icontrol)·100. […] If after the first experiment the IC50 turned out to lie outside the range between the two chosen concentrations the concentrations were changed to bracket the IC50 in the following experiments. The compound was tested on at least three cells.

The target in another test is T2, NMDA NR1 + NR2B (Homo sapiens, UniProt Q05586+Q13224).
T2 construct: expressed in transfected cells; host or cells: Xenopus oocytes
T2 sequence (Q13224 27-1484, other chains not shown): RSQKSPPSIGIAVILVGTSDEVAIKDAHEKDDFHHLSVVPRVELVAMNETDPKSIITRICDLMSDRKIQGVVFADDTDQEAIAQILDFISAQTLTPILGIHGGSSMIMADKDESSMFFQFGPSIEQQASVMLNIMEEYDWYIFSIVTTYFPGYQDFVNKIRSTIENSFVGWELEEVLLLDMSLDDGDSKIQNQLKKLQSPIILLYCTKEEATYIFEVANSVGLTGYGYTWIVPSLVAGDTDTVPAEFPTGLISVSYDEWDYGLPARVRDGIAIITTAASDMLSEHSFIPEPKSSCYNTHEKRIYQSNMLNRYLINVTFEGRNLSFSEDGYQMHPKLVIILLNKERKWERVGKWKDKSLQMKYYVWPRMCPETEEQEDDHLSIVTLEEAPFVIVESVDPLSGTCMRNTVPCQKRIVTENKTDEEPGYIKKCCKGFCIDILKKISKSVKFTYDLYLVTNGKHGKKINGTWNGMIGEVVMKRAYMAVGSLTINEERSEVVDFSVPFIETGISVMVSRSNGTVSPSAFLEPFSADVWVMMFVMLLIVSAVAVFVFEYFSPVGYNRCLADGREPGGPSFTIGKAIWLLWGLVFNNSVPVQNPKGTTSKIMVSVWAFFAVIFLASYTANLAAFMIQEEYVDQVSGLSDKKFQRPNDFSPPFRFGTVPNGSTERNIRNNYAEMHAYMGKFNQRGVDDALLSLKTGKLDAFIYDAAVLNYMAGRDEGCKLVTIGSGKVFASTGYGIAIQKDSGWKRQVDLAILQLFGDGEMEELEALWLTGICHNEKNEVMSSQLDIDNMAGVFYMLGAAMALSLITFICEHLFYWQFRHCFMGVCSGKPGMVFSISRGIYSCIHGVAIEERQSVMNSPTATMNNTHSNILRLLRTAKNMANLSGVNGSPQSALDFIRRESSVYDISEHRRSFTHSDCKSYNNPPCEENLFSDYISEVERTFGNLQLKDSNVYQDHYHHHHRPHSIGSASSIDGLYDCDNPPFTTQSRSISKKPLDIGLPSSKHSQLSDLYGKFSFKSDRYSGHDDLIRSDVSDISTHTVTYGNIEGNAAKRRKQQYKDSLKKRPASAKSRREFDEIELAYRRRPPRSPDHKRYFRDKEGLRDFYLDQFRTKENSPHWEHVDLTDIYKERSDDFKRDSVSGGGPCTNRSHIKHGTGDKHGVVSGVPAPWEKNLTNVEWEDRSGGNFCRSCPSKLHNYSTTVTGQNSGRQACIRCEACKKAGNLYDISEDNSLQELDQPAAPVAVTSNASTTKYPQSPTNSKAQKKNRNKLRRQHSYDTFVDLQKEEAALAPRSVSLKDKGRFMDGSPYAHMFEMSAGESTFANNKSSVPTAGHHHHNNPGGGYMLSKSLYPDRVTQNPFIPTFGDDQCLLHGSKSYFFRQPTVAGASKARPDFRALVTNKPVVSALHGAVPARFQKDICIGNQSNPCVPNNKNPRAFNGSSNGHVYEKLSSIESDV
Briefly: Block of recombinant NMDA receptor subtype NR1 + NR2B expressed in Xenopus oocytes. Type of test: cell-based. The source says:
(§1) ^c Indicates the ability to block selectively recombinant NMDA receptor
(§2) subtypes expressed in Xenopus oocytes.

The target in a further test is α1-adrenergic receptors. Briefly: 3H-Prazosin binding. The settings on record: rat brain membranes, 0.2 nM 3H-Prazosine, 30 minutes at room temperature, pH 7.4; read-out: Inhibition of [3H]-Prazosin binding IC50. More on the design: species or system rat (Male Fullinsdorf albino rats). How it is done: ^b Inhibition of binding indicates affinity for α1
(§3) Male Fullinsdorf albino rats weighing between 150-200 g were used. Membranes were prepared by homogenization of the whole brain minus cerebellum and medulla oblongata with a Plytron (10.000 rpm, 30 seconds), in 25 volumes of a cold Tris-HCl 50 mM, EDTA 10 mM, pH 7.1 buffer. The homogenate was centrifuged at 48.000 g for 10 minutes at 4° C. The pellet was resuspended using the Polytron in the same volume of buffer and the homogenate was incubated at 37° C. for 10 minutes. After centrifugation the pellet was homogenized in the same buffer and frozen at -80° C. for at least 16 hours but not more than 10 days. For the binding assay the homogenate was thawed at 37° C., centrifuged and the pellet was washed three times as above in a Tris-HCl 15mM, pH 7.4 cold buffer. The final pellet was resuspended in the same buffer and used at a final concentration of 200 mg of protein/ml.
3H-Prazosin binding experiments were performed using a Tris-HCl 50 mM, pH 7.4 buffer. For displacement experiments 0.2 nM of 3H-Prazosine were used and non specific binding was measured using […] of Chlorpromazine. The incubation time was 30 minutes at room temperature and the assay was stopped by filtration on Whatman GF/B glass fiber filters (Ubrifilter-96, Canberra Packard S. A., Zurich, Switzerland). The filters were washed 5 times with cold buffer. The radioactivity on the filter was counted on a Packard Top-count microplate scintillation counter after addition of […] of microscint 40 (Canberra Packard S. A., Zurich, Switzerland). The effects of compounds were measured using a minimum of 8 concentrations and repeated at least once. The pooled normalized values were analyzed using a non-linear regression calculation program which provide IC50 with their relative upper and lower 95% confidence limits (RS1, BBN, USA).

A further test has as its target T3, NMDA NR1 + NR2A (Homo sapiens, UniProt Q05586+Q12879).
T3 construct: expressed in transfected cells; host or cells: Xenopus oocytes
The experiment in a line: Block of recombinant NMDA receptor subtype NR1 + NR2A expressed in Xenopus oocytes. It is filed as cell-based.
Excerpt: as §1, §2

Test [2] concerns i.c.v. NMDA-induced convulsions in mice. The experiment in a line: Block of i.c.v. NMDA-induced convulsions in mice. Type of test: in vivo. The note with it: Mus musculus, iv. The source says: |^d Indicates potency in mg/kg i.v. to block i.c.v. NMDA-induced | convulsions in mice.
The target in test [3] is T4, NMDA NR2B subunit containing receptors (Rattus norvegicus, UniProt P35439+Q00960).
T4 construct: Membranes were prepared by homogenization of the whole brain minus cerebellum and medulla oblongata; from tissue; host or cells: rat whole brain minus cerebellum and medulla oblongata, membranes
T4 sequence (Q00960 27-1482, other chains not shown): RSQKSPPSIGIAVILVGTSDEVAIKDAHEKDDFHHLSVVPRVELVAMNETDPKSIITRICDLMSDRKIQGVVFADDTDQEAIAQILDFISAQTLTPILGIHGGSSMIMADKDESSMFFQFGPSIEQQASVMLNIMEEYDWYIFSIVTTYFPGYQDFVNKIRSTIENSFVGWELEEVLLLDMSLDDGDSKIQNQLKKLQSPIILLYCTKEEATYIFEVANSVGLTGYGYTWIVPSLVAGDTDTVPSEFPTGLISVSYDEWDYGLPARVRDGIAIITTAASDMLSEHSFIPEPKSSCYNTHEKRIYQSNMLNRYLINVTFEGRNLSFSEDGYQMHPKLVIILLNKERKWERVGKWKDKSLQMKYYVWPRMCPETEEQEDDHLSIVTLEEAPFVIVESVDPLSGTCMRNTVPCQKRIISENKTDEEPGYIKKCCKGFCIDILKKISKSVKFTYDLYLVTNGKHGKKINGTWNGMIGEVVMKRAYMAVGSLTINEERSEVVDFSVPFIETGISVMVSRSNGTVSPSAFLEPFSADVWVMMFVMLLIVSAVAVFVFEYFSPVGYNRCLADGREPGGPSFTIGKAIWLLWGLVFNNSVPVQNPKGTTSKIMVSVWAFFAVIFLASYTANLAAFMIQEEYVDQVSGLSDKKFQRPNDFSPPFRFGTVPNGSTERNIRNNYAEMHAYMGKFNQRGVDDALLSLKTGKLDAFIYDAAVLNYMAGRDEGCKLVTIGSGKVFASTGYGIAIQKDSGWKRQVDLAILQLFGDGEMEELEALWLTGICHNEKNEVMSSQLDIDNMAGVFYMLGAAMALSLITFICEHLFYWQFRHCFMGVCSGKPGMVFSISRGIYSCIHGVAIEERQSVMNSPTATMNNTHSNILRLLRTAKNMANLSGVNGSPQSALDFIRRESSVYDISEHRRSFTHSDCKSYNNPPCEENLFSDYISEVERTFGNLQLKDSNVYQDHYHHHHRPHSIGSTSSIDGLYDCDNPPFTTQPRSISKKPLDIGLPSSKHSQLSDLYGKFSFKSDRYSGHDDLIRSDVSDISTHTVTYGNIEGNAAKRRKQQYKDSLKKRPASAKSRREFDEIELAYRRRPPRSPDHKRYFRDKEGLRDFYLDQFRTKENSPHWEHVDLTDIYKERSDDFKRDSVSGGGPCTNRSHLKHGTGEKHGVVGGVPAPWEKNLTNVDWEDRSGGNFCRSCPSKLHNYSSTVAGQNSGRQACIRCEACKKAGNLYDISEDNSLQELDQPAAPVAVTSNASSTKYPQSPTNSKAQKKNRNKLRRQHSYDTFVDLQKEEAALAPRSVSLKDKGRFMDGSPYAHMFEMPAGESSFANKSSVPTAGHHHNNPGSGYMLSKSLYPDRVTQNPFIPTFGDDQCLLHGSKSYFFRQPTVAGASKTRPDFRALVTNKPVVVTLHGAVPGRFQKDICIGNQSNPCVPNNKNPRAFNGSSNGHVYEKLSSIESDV
Briefly: 3H [R-(R*,S*)]-α-(4-Hydroxy-phenyl)-β-methyl-4-(phenyl-methyl)-1-piperidine propanol binding. More on the design: species or system rat (Male Fullinsdorf albino rats). The settings on record: rat brain membranes, 5 nM radioligand, 2 hours at 4° C., pH 7.4; read-out: Inhibition of 3H [R-(R*, S*)]-α-(4-Hydroxy-phenyl)-β-methyl-4-(phenyl-methyl)-1-piperidine propanol binding IC50. How it is done: ^a Inhibition of binding indicates affinity for NMDA NR2B subunit
3H [R-(R*,S*)]-α-(4-Hydroxy-phenyl)-β-methyl-4-(phenyl-methyl)-1-piperidine propanol) binding
as §3, with “Polytron” for “Plytron”, “-100°” for “-80°”, “5 mM,” for “15mM,”, “μg” for “mg”
3H [R-(R*,S*)]-α-(4-Hydroxy-phenyl)-β-methyl-4-(phenyl-methyl)-1-piperidine propanol binding experiments were performed using a Tris-HCl 50 mM, pH 7.4 buffer. For displacement experiments 5 nM of 3H [R-(R*,S*)]-α-(4-Hydroxy-phenyl)-β-methyl-4-(phenyl-methyl)-1-piperidine propanol were used and non specific binding was measured using 10 μM of tetrahydroisoquinoline and usually it accounts for 10% of the total. The incubation time was 2 hours at 4° C. and the assay was stopped by filtration on Whatmann GF/B glass fiber filters (Unifilter-96, Packard, Zurich, Switzerland). The filters were washed 5 times with cold buffer. The radioactivity on the filter was counted on a Packard Top-count microplate scintillation counter after addition of […] of microscint 40 (Canberra Packard S. A., Zurich, Switzerland).
The effects of compounds were measured using a minimum of 8 concentrations and repeated at least once. The pooled normalized values were analyzed using a non-linear regression calculation program which provide IC50 with their relative upper and lower 95% confidence limits (RS1, BBN, USA).

Values joined by “and” are separate entries in the source; they are usually repeats but may differ in a detail not shown here. Identical values can stand only once. Where only a bound is given, the exact number is not on record here.

The term IC50 denotes the midpoint of a concentration-inhibition curve. A word on the ED50: it is the dose that gives a 50% effect, or the effect in half of the subjects. A lower ED50 goes with greater potency.

T3 sequence (Q12879 23-1464, other chains not shown): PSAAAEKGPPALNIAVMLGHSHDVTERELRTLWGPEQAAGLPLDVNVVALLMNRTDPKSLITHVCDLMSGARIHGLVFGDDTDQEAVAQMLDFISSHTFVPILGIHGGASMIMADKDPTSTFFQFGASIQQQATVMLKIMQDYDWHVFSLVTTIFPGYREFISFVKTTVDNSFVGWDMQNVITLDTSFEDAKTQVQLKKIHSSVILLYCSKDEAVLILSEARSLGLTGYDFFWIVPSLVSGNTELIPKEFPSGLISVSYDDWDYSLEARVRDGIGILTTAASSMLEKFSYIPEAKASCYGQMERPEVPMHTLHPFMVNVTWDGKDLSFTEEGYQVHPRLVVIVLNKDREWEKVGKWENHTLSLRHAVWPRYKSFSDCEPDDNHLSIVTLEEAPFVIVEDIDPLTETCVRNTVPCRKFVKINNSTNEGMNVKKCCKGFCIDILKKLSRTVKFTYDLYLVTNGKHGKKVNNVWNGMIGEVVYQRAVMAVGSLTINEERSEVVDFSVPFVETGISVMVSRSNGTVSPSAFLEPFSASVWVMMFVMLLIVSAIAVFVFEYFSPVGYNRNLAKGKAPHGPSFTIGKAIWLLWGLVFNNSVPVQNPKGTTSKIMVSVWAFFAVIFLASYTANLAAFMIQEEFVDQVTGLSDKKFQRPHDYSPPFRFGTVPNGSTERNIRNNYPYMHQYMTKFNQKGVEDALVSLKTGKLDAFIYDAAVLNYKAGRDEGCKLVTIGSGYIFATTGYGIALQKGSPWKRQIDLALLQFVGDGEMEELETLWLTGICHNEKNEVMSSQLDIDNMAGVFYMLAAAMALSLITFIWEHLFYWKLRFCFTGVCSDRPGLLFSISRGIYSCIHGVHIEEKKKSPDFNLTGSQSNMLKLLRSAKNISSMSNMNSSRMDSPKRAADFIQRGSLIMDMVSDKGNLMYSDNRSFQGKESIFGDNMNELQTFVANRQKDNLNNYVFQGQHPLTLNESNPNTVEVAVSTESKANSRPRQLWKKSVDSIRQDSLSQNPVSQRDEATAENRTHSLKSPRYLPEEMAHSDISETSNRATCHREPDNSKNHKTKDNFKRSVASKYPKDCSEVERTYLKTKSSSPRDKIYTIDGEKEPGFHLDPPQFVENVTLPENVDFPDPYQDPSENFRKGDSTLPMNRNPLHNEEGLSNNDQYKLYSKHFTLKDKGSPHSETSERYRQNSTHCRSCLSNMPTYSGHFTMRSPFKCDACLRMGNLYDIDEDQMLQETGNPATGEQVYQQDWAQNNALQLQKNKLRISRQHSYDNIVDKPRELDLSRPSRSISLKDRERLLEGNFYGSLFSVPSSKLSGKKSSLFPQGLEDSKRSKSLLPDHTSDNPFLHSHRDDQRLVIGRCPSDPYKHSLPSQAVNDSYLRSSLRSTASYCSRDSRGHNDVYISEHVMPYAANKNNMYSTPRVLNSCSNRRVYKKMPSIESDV

For the compound `Cc1ccc(C[C@H]2CCN(CCS(=O)(=O)c3ccc(O)cc3)C[C@H]2O)cc1` (single isomer, unassigned) [Compound 6, (-)(cis)-1-[2-(4-hydroxy-benzenesulfonyl)-ethyl]-4-(4-methyl-benzyl)-piperidin-3-ol], the IC50 in test [1] is 3700 nM; at NMDA NR1 + NR2B, 8 nM; on α1-adrenergic receptors it was 88000 nM; at NMDA NR1 + NR2A, above 10000 nM; in test [3] it was 11 nM and 11 to 24 nM. It took a dose of 2.2 mg/kg to reach the 50% effect level in test [2] (ED50).
For `O=S(=O)(CCN1CCC(Cc2ccccc2)CC1)c1ccc(O)cc1` [Compound 1, 4[-2-(4-benzyl-piperidine-1-yl)-ethanesulfonyl]-phenol], the IC50 in test [1] is 4000 nM; on NMDA NR1 + NR2B, below 10 nM; on α1-adrenergic receptors, 42000 nM; on NMDA NR1 + NR2A it was above 10000 nM; in test [3] it was 18 nM and 11 to 24 nM. In addition, it took a dose of 1.1 mg/kg to reach the 50% effect level in test [2] (ED50).
In the case of `Cc1ccc(OC2CCN(CCS(=O)(=O)c3ccc(O)cc3)CC2)cc1` [Compound 2, 4-[2-(4-p-tolyloxy-piperidin-1-yl)-ethanesulfonyl]-phenol], the IC50 is 4700 nM in test [1]; below 10 nM at NMDA NR1 + NR2B; 16000 nM at α1-adrenergic receptors; above 10000 nM on NMDA NR1 + NR2A; 24 nM and 11 to 24 nM in test [3]. Besides, in test [2], the 50% effect level (ED50) was put at a dose of 0.84 mg/kg.
In the case of `O=S(=O)(CCN1CC[C@H](Cc2ccccc2)[C@H](O)C1)c1ccc(O)cc1` [Compound 3, (-)(3S,4S)-4-benzyl-1-[2-(4-hydroxy-benzenesulfonyl)-ethyl]-piperidin-3-ol], the half-maximal inhibitory concentration (IC50) on NMDA NR1 + NR2B was 38 nM; at α1-adrenergic receptors, 55000 nM; at NMDA NR1 + NR2A, above 10000 nM; in test [3] it was 14 nM and 11 to 24 nM. For the same compound, the ED50 in test [2] amounted to 3.8 mg/kg.
As to `Cc1ccc(CC2(O)CCN(CCOc3ccc(O)cc3)CC2)cc1` [Compound 9, 1-[2-(4-hydroxy-phenoxy)-ethyl]-4-(4-methyl-benzyl)-piperidin-4-ol, reference compound], the half-inhibitory concentration (IC50) was 690 nM in test [1], 3 nM at NMDA NR1 + NR2B, 3500 nM on α1-adrenergic receptors and above 100000 nM on NMDA NR1 + NR2A. Moreover, in test [2], the ED50 stood at 2.3 mg/kg.
